Source: patent US6488924B1, “Vitamin K adduct, particularly suitable as vitamin supplement for feeds” (Luigi Stoppani S.p.A., priority 1999, dated 2002)

What was measured:
[1] = Stability in extruded feed (fish farm feed); format: physicochemical; conditions: for menadione in feed, sampling point End point: after extrusion, drying and addition of fat; for menadione in feed, sampling point Mixer: after mixing, before extrusion
Experimental: Two preparations of vitamin supplement of approximately 2500 kg of feed were prepared for each vitamin K source. The vitamin K supplements were mixed in with the feed in an industrial mixer, extruded in a continuous extruder with the addition of live steam, dried and added with fat.

[2] = Characteristic parameters and comparative tests adduct vs MSB: solubility; format: physicochemical; conditions: at 25° C.
[3] = Thermal stability in air-circulation stove; format: physicochemical; conditions: absence of humidity
[4] = Thermal stability in controlled humidity (dispersed in aluminum silicate); format: physicochemical
Experimental: A method described in the literature is used to compare the stability of Kavist with respect to MSB. According to this method, the products, as accurately dispersed in aluminum silicate (K.F. humidity around 11%) at the level of 1.5% by weight, are kept at 55° C. for 3 days in order to evaluate their menadione content before and after the treatment. The menadione titers of the adduct according to the invention and the percentage of menadione left unchanged before and after the treatment are listed hereafter.

[5] = Stability under pressure (press on disk of finely ground powder); format: physicochemical; conditions: 30 minutes
[6] = Solubility in water (saturated solution in demineralized water); format: physicochemical; conditions: ambient temperature, saturated solution in presence of a precipitate
[7] = Release of menadione in aqueous medium; format: physicochemical; conditions: demineralized water, municipal drinking water, seawater
Experimental: The menadione release capacity of the adduct according to the invention and of MSB in three different types of water (demineralized water, municipal drinking water, and seawater) is evaluated.
The following table lists the milligrams/liter of menadione found in the solution with respect to the total menadione of the polymeric adduct added as a suspension equal to 1 g/l ([…] menadione on 1 g of dry adduct): […]

[8] = pH of the medium; cited from earlier work

Structure (SMILES)	menadione in feed, sampling point End point ([1]; 1st preparation) [mg/kg]	menadione in feed, sampling point Mixer ([1]; 1st preparation) [mg/kg]	menadione in feed, sampling point End point ([1]; 2nd preparation) [mg/kg]	menadione in feed, sampling point Mixer ([1]; 2nd preparation) [mg/kg]	water solubility [2] [g/100 ml at 25 °C]	Men found/initial Men ([3]; 120° for 24 hours) [%]	Color ([3]; after 120° for 24 hours)	Final menadione/initial menadione ([4]; 55° C. for 3 days in aluminum silicate (humidity around 11%)) [%]	Final menadione content ([4]; after 55° C. for 3 days in aluminum silicate (humidity around 11%)) [%]	Initial menadione content ([4]; before treatment, dispersed in aluminum silicate (humidity around 11%) at 1.5% by weight) [%]	percentage of menadione left unchanged ([5]; 1 atm, 25° C.) [%]	percentage of menadione left unchanged ([5]; 1 atm, 120° C.) [%]	percentage of menadione left unchanged ([5]; 25 atm, 25° C.) [%]	percentage of menadione left unchanged ([5]; 25 atm, 120° C.) [%]	percentage of menadione left unchanged ([5]; 5000 atm, 25° C.) [%]	percentage of menadione left unchanged ([5]; 5000 atm, 120° C.) [%]	Menadione concentration mg/l saturated solution [6]	menadione release in water (in words) [7]	pH at which isomerization into poorly effective product becomes complete [8]
CC1(S(=O)(=O)O)CC(=O)c2ccccc2C1=O.NC(=O)c1cccnc1 (centres unmarked) [MNB, menadione nicotinamide bisulfite]	22.7	86.1	18.1	86.3	–	–	–	–	–	–	–	–	–	–	–	–	–	–	–
CC1(S(=O)(=O)[O-])CC(=O)c2ccccc2C1=O.[Na+] (centres unmarked) [MSB, menadione sodium bisulfite]	21.0	90.9	16.1	87.6	50	0	Purple	15.5	0.24	1.52	100	20	100	15	80	10	Higher than 20 × 10^4 mg mg/l	substantially instantaneous release	approximately 8.5
